Where “and” joins values, the source holds several entries; their conditions need not be identical. Identical values can stand only once.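 Cultured in 96-well plates, cells were exposed to test compound for 48 hours across five concentrations. GI50 marks 50% less growth. TGI is the concentration that stops growth completely.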 *1 amine or outer side, *2 acyl side, *3 side chain or, on linkers, in order; H or OH if unused. Where a SMILES comes first, the peptide text is derived from it. [ ]: non-standard residue; d: D form. The star is where a group is joined. X12 = NCCCCC(N[*:1])C(=O)CN1CCCC1C(=O)[*:2]; Pentadecanoyl = CCCCCCCCCCCCCCC(=O)*
What was measured:
Test in all cases: NCI anticancer screen, dose series, 48 h
KM12 colon = tested on: KM12 colon
U251 CNS = tested on: U251 CNS
UACC-257 melanoma = tested on: UACC-257 melanoma
NCI-H522 lung = tested on: NCI-H522 lung
UO-31 renal = tested on: UO-31 renal
OVCAR-8 ovarian = tested on: OVCAR-8 ovarian
RXF 393 renal = tested on: RXF 393 renal
T-47D breast = tested on: T-47D breast
HS 578T breast = tested on: HS 578T breast
DU-145 prostate = tested on: DU-145 prostate

| Structure (SMILES) | TGI (KM12 colon) | TGI (U251 CNS) [µM] | TGI (UACC-257 melanoma) [µM] | TGI (NCI-H522 lung) | TGI (UO-31 renal) [µM] | TGI (OVCAR-8 ovarian) [µM] | TGI (RXF 393 renal) | TGI (T-47D breast) [µM] | TGI (HS 578T breast) [µM] | TGI (DU-145 prostate) [µM] | GI50 (T-47D breast) [µM] | GI50 (HS 578T breast) [µM] | GI50 (KM12 colon) [µM] | GI50 (DU-145 prostate) [µM] | GI50 (UACC-257 melanoma) [µM] | GI50 (NCI-H522 lung) | GI50 (UO-31 renal) [µM] | GI50 (OVCAR-8 ovarian) [µM] | GI50 (RXF 393 renal) | GI50 (U251 CNS) [µM] |
| --- | --- | --- | --- | --- | --- | --- | --- | --- | --- | --- | --- | --- | --- | --- | --- | --- | --- | --- | --- | --- |
| CC1[C@@H]2C[C@@H]3O[C@@]34[C@H]3CCC5Cc6nc7c(nc6C[C@@]5(C)C3(O)CC(=O)[C@@]24CO[C@]12OC(C)(C)CC2O)CC1CC[C@@H]2C3=C[C@H]4O[C@@]5(O[C@@](C)(CO)C[C@@H]5O)C(C)[C@@]4(O)[C@]3(C)[C@@H](O)CC2[C@]1(C)C7 (some centres undefined) | 0.893 µM | 0.332 | > 3.52 | 0.653 µM | 0.755 | > 3.52 | 0.0296 µM | – | – | – | – | – | – | – | – | – | – | – | – | – |
| Cc1cc(N)c2cc(NC(=O)CCCCCCCCC(=O)Nc3ccc4nc(C)cc(N)c4c3)ccc2n1 | > 68.4 µM | 49.3 | 96.9 | 5.36 µM | > 100 | > 100 | > 100 µM | – | – | – | – | – | – | – | – | – | – | – | – | – |
| COC1OC2COC(c3ccccc3)OC2C(OC(=S)c2ccccc2)C1O (centres undefined) | – | 26.2 | > 100 | – | > 100 | 39.3 | 36.9 µM | 59.5 | > 100 | > 100 | – | – | – | – | – | – | – | – | – | – |
| O=C(O)CCC(NC(=O)/C(=C/c1ccccc1)NC(=O)c1ccccc1)C(=O)O (centres undefined) | > 100 µM | – | > 100 | > 100 µM | > 100 | > 100 | > 100 µM | > 100 | > 100 | > 100 | – | – | – | – | – | – | – | – | – | – |
| O=C(c1cccs1)N(C(=O)N1CCCCC1)c1ccccc1 | > 100 µM | > 100 | > 100 | – | > 100 | > 100 | > 100 µM | > 100 | > 100 | > 100 | – | – | – | – | – | – | – | – | – | – |
| CC1CC/C(=C\c2ccc(F)cc2)C2=C1C(c1ccc(F)cc1)NC(=S)N2 (centres undefined) | > 100 µM | > 100 | > 100 | – | > 100 | > 100 | > 100 µM | 70.8 | > 100 | > 100 | – | – | – | – | – | – | – | – | – | – |
| CCCCCCCCCCCCCCC(=O)NC(CCCCN)C(=O)CN1CCCC1C(=O)NCC(=O)NC(Cc1ccccc1)C(=O)N1CCCC1C(=O)NC(CO)C(=O)NC(Cc1ccc(O)cc1)C(=O)NC(CCCCN)C(=O)NC(CC(C)C)C(=O)NC(CCCN=C(N)N)C(=O)N1CCCC1C(=O)NCC(N)=O (centres undefined) (Pentadecanoyl-[X12]GFPSYKLRPG-NH2; configuration not given here) | 38.7 µM | – | 52.1 | 55.6 µM | 60.2 | 64.4 | 60.4 µM | 40.7 | > 100 | 53.8 | 17.2 | 38.6 | 7.61 | 24.1 | 29.5 | 23.1 µM | 22.6 | 27.8 | 26.1 µM | – |
| c1ccc(C2C3=C(CCCC3)Nc3nnnn32)cc1 (centres undefined) | > 100 µM | > 100 | > 100 | – | > 100 | > 100 | 27.8 µM | > 100 | > 100 | > 100 | – | – | – | – | – | – | – | – | – | – |
| S=C1NNC(=S)NN1 | > 1 µM | > 1 | > 1 | > 1 µM | > 1 | > 1 | – | > 1 | > 1 | > 1 | – | – | – | – | – | – | – | – | – | – |
| C(=N\Nc1nnc(-c2nnc(N/N=C/c3ccccc3)o2)o1)/c1ccccc1 | > 10 µM | > 10 | > 10 | – | > 10 | > 10 | > 10 µM | > 10 | > 10 | > 10 | – | – | – | – | – | – | – | – | – | – |
| O=C(N(C1=CCCC1)N(c1ccccc1)c1ccccc1)C(F)(F)F | 43.9 µM | 42.2 | 58.9 | 25.3 µM | 75.6 | > 100 | 38.8 µM | 65.8 | – | 81.5 | – | – | – | – | – | – | – | – | – | – |
| COc1ccc(-c2nc3ncccn3c2-c2ccc(S(C)(=O)=O)cc2)cc1 | > 100 µM | > 100 | > 100 | – | > 100 | > 100 | – | – | > 100 | > 100 | – | – | – | – | – | – | – | – | – | – |
| CN(C)CCSc1nccc(-c2ccc(-c3ccnc(SCCN(C)C)n3)s2)n1 | 16 µM | 26 | 31.1 | 33.5 µM | 16.6 | 31.4 | 9.99 µM | – | – | – | – | – | – | – | – | – | – | – | – | – |
| COc1ccc(Cn2nc(OCc3ccccc3)c3cc([N+](=O)[O-])ccc32)cc1 | > 100 µM | – | > 100 | > 100 µM | – | > 100 | > 100 µM | > 100 | > 100 | > 100 | – | – | – | – | – | – | – | – | – | – |
| C/C(=C\c1ccccc1)n1c(=O)cc(C)n1C | > 100 µM | > 100 | > 100 | – | > 100 | > 100 | > 100 µM | > 100 | > 100 | > 100 | – | – | – | – | – | – | – | – | – | – |
| Cc1cc(C)c(N)c(CO)c1 | > 100 µM | > 100 | > 100 | > 100 µM | > 100 | > 100 | > 100 µM | – | > 100 | > 100 | – | – | – | – | – | > 100 µM and 42.5 µM | – | – | > 100 µM and 32.3 µM | – |
| N#Cc1nc(C(=O)c2ccccc2)oc1N | > 100 µM | > 100 | > 100 | – | – | > 100 | – | – | > 100 | > 100 | – | – | – | – | – | – | – | – | – | – |
| O=c1[nH]c(=O)c2c([nH]1)[nH]c1ccccc12 | > 100 µM | – | > 100 | > 100 µM | > 100 | > 100 | > 100 µM | > 100 | > 100 | > 100 | – | – | – | – | – | – | – | – | – | – |
| O=S1(=O)OCCOS(=O)(=O)C1S(=O)(=O)c1cccc2ccccc12 | > 100 µM | > 100 | > 100 | – | > 100 | > 100 | – | – | – | > 100 | – | – | – | – | – | – | – | – | – | – |
| COc1ccc(OC)c([N+](=O)[O-])c1-c1nc2sc(C)cn2c1/C=N/N=C(N)N | 72.9 µM | > 100 | 47 | 46.5 µM | > 100 | 76.8 | 76.1 µM | – | 97.9 | > 100 | – | – | – | – | – | – | – | – | – | – |
| COc1cccc2c1C(=O)c1c(O)c3c(c(O)c1C2=O)C[C@@](O)(C(=O)CO)CC3OC1CC(NCCCCC(OC(C)=O)OC(C)=O)C(O)C(C)O1 (some centres undefined) | 0.00774 µM and 0.022 µM | – | 0.00798 | 0.00344 µM and 0.00513 µM | 0.0043 | 0.0614 | 0.00356 µM and 0.00642 µM | – | – | – | – | – | – | – | 0.00286 | 0.00125 µM | – | 0.00179 | 0.00269 µM | 0.00266 |
| CC(=O)O[C@H]1CC[C@]2(C=O)[C@H]3CC[C@]4(C)[C@@H](C5=CC(=O)OC5)CC[C@]4(O)[C@@H]3CC[C@]2(O)C1 | – | 0.559 | 1.63 | 0.357 µM | 1.48 | 1.01 | – | 2.68 | > 100 | 0.391 | – | – | – | – | – | – | – | – | – | – |
